In patent US20110201569A1, “Methods For Treating Myocardial Disorders” (priority 2009, published 2011):
Entries after “also recorded” stand apart in the source; their conditions may differ.

Experiments:
C57BL/6 mice = experiment: Cardiac biometric parameters (left ventricular weight) three days after transverse aortic constriction (TAC) or sham operation; type: in vivo, mouse
Excerpt: (§1) 11 to 13 week old male C57BL/6 mice were purchased from Charles River (Germany). Mice were housed in individually ventilated pathogen-free cages with free access to water and standard rodent chow. The animals were handled according to the principles of laboratory animal care (NIH publication No. 85-23, revised 1996), and animal procedures were approved by the local committee for animal care.
To allow for repetitive intravenous injections, a venous port was implanted. Mice were anesthetized with isoflurane 2.0 vol % (Forene®, Abbott GmbH, Germany). Body temperature was maintained at 37° C. The jugular vein was exposed and a catheter (outer diameter 0.64 mm, Dow Corning Europe, Wiesbaden, Germany) inserted into the vessel via a small incision. The catheter was secured with a silk thread and tissue adhesive (Histoacryl, Braun, Germany). Finally, the catheter was tunneled subcutaneously and connected to an extracutaneous port through an incision between scapulae.
The first injection was performed 5 min prior to TAC or sham-operation procedure (described below) and repeated 4, 8, 12, 24, 36, 48 and 60 hrs after surgery. Animals were randomly assigned into two groups, receiving either a tetrasodium salt of the compound of formula 1 (hereinafter “Eritoran tetrasodium”) or placebo. The catheter was flushed with 50 μl 0.9% NaCl before and 100 μl after each injection of 50 μl Eritoran tetrasodium (2.5 mg/ml vehicle; 5 mg/kg bodyweight/application; dosage adopted from Shimamoto et al., Circulation 2006, 114: 1270-1274) or placebo solution.
Treatment groups were separated into two subgroups, undergoing transverse aortic constriction (TAC) or sham operation. Surgery for TAC was achieved as published previously (see, e.g., Baumgarten et al., Circulation 2002, 105: 2192-2197 and Baumgarten et al., Basic Res Cardiol 2006, 101: 427-435). Mice were intubated in a supine position and mechanical ventilation was initiated (MiniVent 845, Hugo Sachs Elektronik, Germany). A left parasternal incision was performed. A suture was passed underneath the aorta and tied down on a 27 Gauge needle, which was immediately removed and allowed to achieve a standardised and previously validated decreased diameter of the aorta. For sham operation the suture was passed underneath the aorta without ligation. For analgesia, mice received a single intraperitoneal injection of 0.065 mg/kg BW buprenorphine.
Three days after TAC or sham operation, the impact on cardiac biometric parameters was investigated. Body weight was registered. Heart and lung were excised, prepared and immediately measured. Total heart weight, left ventricular weight as well as lung weight and tibia length were recorded. Ventricles were snap frozen in liquid nitrogen and kept at −80° C.
Statistics were calculated using Prism 4.05 (GraphPad Software Inc., CA, USA). All values are expressed as mean (M)±SEM. One-way ANOVA with Newman-Keuls post-hoc testing was performed for statistical analysis with the exception of TIMP and cytokine expression which were analysed with Kruskal-Wallis and Dunn's multiple comparison post-hoc testing Impact of TAC-Eritoran on IL-10 expression was analysed with Two-way ANOVA. Differences between experimental groups were considered to be significant with p<0.05.
Example 2 was completed in a manner similar to Example 1, with minor changes as described below.
With the consent of proper authority (LANUV), 12 week old male C57BL/6-mice were anesthetized with Isofluran (2.0 Vol. %) and a catheter was implanted into the right jugular vein. Afterwards, either transverse aortic constriction (TAC) or a sham operation was performed. In TAC animals, the aortic diameter was reduced by 70% with a 6-0 silk filament. Mice received either the compound of formula (I) or placebo i.v. 5 minutes prior to TAC/sham-operation and 6 h, 12 h, 24 h, 36 h, 48 h and 60 h after surgery. […]

MMP-9 = experiment: Gelatine zymography of MMP activity in left ventricular tissue after TAC; type: in vivo, mouse
Protocol: as §1
The first injection was performed 5 min prior to TAC or sham-operation procedure (described below) and repeated 4, 8, 12, 24, 36, 48 and 60 hrs after surgery. Animals were randomly assigned into two groups, receiving either a tetrasodium salt of the compound of formula 1 (hereinafter “Eritoran tetrasodium”) or placebo. The catheter was flushed with 50 μl 0.9% NaCl before and 100 μl after each injection of 50 μl Eritoran tetrasodium (2.5 mg/ml vehicle; 5 mg/kg bodyweight/application; dosage adopted from Shimamoto et al., Circulation 2006, 114: 1270-1274) or placebo solution. […]
For zymographic measurement of MMP activity, protein isolates from left ventricular tissue (60 μg protein content, isolated with NE-PER protein isolation kit; Pierce®) were mixed with 2× Tris-Glycine SDS sample buffer, and loaded on precast zymogram gels (SDS-PAGE; BioRad, Germany) containing […]. […] Areas of protease activity were detected as transparent bands against blue background. […]

[1] = Example 1, TAC vs sham-operated, 5 mg/kg i.v. per application, three days after surgery

Compound | left ventricular weight/body weight (LVW/BW) (C57BL/6 mice; [1]) | left ventricular weight/tibia length (LVW/TL) (C57BL/6 mice; [1]) | left ventricular weight (LVW) (C57BL/6 mice; Example 1, TAC, 5 mg/kg i.v. per application, three days after surgery) | cardiac hypertrophy after TAC (C57BL/6 mice; Example 1, TAC, 5 mg/kg i.v. per application, three days after surgery, 5 mg/kg) | MMP (MMP-9) zymographic activity (MMP-9; Example 1, TAC, three days after surgery) | left ventricle weight (LVW) (C57BL/6 mice; Example 2, TAC, i.v. 5 min prior to and 6-60 h after surgery, three days after surgery) | development of cardiac hypertrophy (C57BL/6 mice; Example 2, murine model of transverse aortic constriction (TAC)) | MMP-9 zymographic activity (MMP-9; Example 2, TAC treated vs TAC-placebo)
CCCCCC/C=C\CCCCCCCCCC(=O)N[C@H]1[C@H](OC[C@H]2O[C@H](OP(=O)([O-])[O-])[C@H](NC(=O)CC(=O)CCCCCCCCCCC)[C@@H](OCCCCCCCCCC)[C@@H]2O)O[C@H](COC)[C@@H](OP(=O)([O-])[O-])[C@@H]1OCC[C@@H](CCCCCCC)OC.[Na+].[Na+].[Na+].[Na+] [Eritoran tetrasodium] | did not differ from sham-operated mice | did not differ from sham-operated mice | 81.32 ± 4.21 mg | decreases cardiac hypertrophy after TAC; also recorded: diminished cardiac hypertrophy induced by pressure overload | attenuated; also recorded: reduced zymographic activity of MMP-9 |  |  | 
CCCCCC/C=C\CCCCCCCCCC(=O)N[C@H]1[C@H](OC[C@H]2O[C@H](OP(=O)(O)O)[C@H](NC(=O)CC(=O)CCCCCCCCCCC)[C@@H](OCCCCCCCCCC)[C@@H]2O)O[C@H](COC)[C@@H](OP(=O)(O)O)[C@@H]1OCC[C@@H](CCCCCCC)OC [compound of formula (I), α-D-Glucopyranose, 3-O-decyl-2-deoxy-6-O-[2-deoxy-3-O-[(3R)-3-methoxydecyl)-6-O-methyl-2-[[(−11Z)-1-oxo-11-octadecenyl)amino]-4-O-phosphono-β-D-glucopyranosyl]-2-[(1,3-dioxotetradecyl)amino]-1-(dihydrogen phosphate)] |  |  |  |  |  | 81.32 ± 4.2 mg | prevents the development of cardiac hypertrophy | higher in the TAC-placebo animals compared to the TAC groups treated
